According to PubChem BioAssay (NCI):
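How tested: cells in 96-well plates exposed to compound for 48 hours at five concentrations. Here, GI50 denotes the concentration required for 50% inhibition of growth. TGI denotes the concentration required for complete inhibition of growth.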

How the values were obtained:
Assay in all cases: NCI anticancer screen, dose series, 48 h
[1] = test system: HS 578T breast
[2] = test system: SNB-75 CNS
[3] = test system: U251 CNS
[4] = test system: NCI-H460 lung
[5] = test system: CAKI-1 renal
[6] = test system: SNB-19 CNS
[7] = test system: BT-549 breast
[8] = test system: OVCAR-5 ovarian
[9] = test system: MOLT-4 leukemia
[10] = test system: UO-31 renal
[11] = test system: SK-MEL-5 melanoma
[12] = test system: HOP-62 NSCLC
[13] = test system: UACC-62 melanoma
[14] = test system: COLO 205 colon
[15] = test system: RXF 393 renal
[16] = test system: K-562 leukemia
[17] = test system: NCI-H226 lung
[18] = test system: ACHN renal
[19] = test system: NCI-H522 lung
[20] = test system: SR leukemia
[21] = test system: EKVX NSCLC
[22] = test system: RPMI-8226 leukemia
[23] = test system: SN12C renal
[24] = test system: HL-60(TB) leukemia
[25] = test system: HCC-2998 colon
[26] = test system: IGROV1 ovarian
[27] = test system: NCI/ADR-RES ovarian
[28] = test system: TK-10 renal
[29] = test system: OVCAR-8 ovarian
[30] = test system: OVCAR-3 ovarian
[31] = test system: SF-268 CNS
[32] = test system: UACC-257 melanoma
[33] = test system: PC-3 prostate
[34] = test system: HT29 colon
[35] = test system: A498 renal
[36] = test system: 786-0 renal
[37] = test system: SK-OV-3 ovarian
[38] = test system: M14 melanoma
[39] = test system: SF-295 CNS
[40] = test system: MDA-MB-231 breast
[41] = test system: SW-620 colon
[42] = test system: SF-539 CNS
[43] = test system: OVCAR-4 ovarian
[44] = test system: SK-MEL-2 melanoma
[45] = test system: MCF7 breast
[46] = test system: HCT-15 colon
[47] = test system: DU-145 prostate
[48] = test system: MDA-MB-435
[49] = test system: HOP-92 NSCLC
[50] = test system: SK-MEL-28 melanoma
[51] = test system: A549 NSCLC
[52] = test system: MALME-3M melanoma
[53] = test system: CCRF-CEM leukemia
[54] = test system: T-47D breast
[55] = test system: KM12 colon

## CCNC(=O)Oc1ccc(/C(=C(/C)c2ccccc2)c2ccc(OCCN3CCCCCC3)cc2)cc1
[1]
  GI50: 1.91 µM
  TGI: 4.67 µM
[2]
  GI50: 1.85 µM
  TGI: 4.36 µM
[3]
  GI50: 1.58 µM
  TGI: 3.2 µM
[4]
  GI50: 1.99 µM
  TGI: 4.14 µM
[5]
  GI50: 1.94 µM
  TGI: 4.28 µM
[6]
  GI50: 3.82 µM
  TGI: 13.4 µM
[7]
  GI50: 1.71 µM
  TGI: 3.38 µM
[8]
  GI50: 4.35 µM
  TGI: 17.8 µM
[9]
  GI50: 2.4 µM
  TGI: 12.3 µM
[10]
  GI50: 1.52 µM
  TGI: 4.43 µM
[11]
  GI50: 1.74 µM
  TGI: 3.16 µM
[12]
  GI50: 2.05 µM
  TGI: 4.82 µM
[13]
  GI50: 1.91 µM
  TGI: 3.87 µM
[14]
  GI50: 1.56 µM
  TGI: 2.98 µM
[15]
  GI50: 1.65 µM
  TGI: 3.27 µM
[16]
  GI50: 1.82 µM
  TGI: > 100 µM
[17]
  GI50: 2.97 µM
  TGI: 10.8 µM
[18]
  GI50: 3.37 µM
  TGI: 10.6 µM
[19]
  GI50: 1.8 µM
  TGI: 3.75 µM
[20]
  GI50: 2.04 µM
  TGI: 6.59 µM
[21]
  GI50: 3.24 µM
  TGI: 12.2 µM
[22]
  GI50: 1.95 µM
  TGI: 4.65 µM
[23]
  GI50: 2.56 µM
  TGI: 8.36 µM
[24]
  GI50: 1.8 µM
  TGI: 6.15 µM
[25]
  GI50: 2 µM
  TGI: 3.89 µM
[26]
  GI50: 3.64 µM
  TGI: 14.8 µM
[27]
  GI50: 2.22 µM
  TGI: 6.4 µM
[28]
  GI50: 5.83 µM
  TGI: 19.9 µM
[29]
  GI50: 3.07 µM
  TGI: 10.7 µM
[30]
  GI50: 2.87 µM
  TGI: 8.2 µM
[31]
  GI50: 4 µM
  TGI: 18.6 µM
[32]
  GI50: 1.88 µM
  TGI: 3.87 µM
[33]
  GI50: 1.74 µM
  TGI: 4.19 µM
[34]
  GI50: 1.27 µM
  TGI: 3.27 µM
[35]
  GI50: 10.4 µM
  TGI: 24.7 µM
[36]
  GI50: 1.71 µM
  TGI: 3.46 µM
[37]
  GI50: 2.74 µM
  TGI: 8.06 µM
[38]
  GI50: 1.8 µM
  TGI: 3.62 µM
[39]
  GI50: 1.98 µM
  TGI: 3.94 µM
[40]
  GI50: 2.25 µM
  TGI: 4.84 µM
[41]
  GI50: 2.11 µM
  TGI: 5.15 µM
[42]
  GI50: 1.74 µM
  TGI: 3.21 µM
[43]
  GI50: 3.05 µM
  TGI: 11.8 µM
[44]
  GI50: 2.48 µM
  TGI: 6.76 µM
[45]
  TGI: 2.6 µM
[46]
  GI50: 1.53 µM
  TGI: 3.33 µM
[47]
  GI50: 4.92 µM
  TGI: 20.3 µM
[48]
  GI50: 1.7 µM
  TGI: 3.29 µM
[49]
  GI50: 1.23 µM
  TGI: 4.62 µM
[50]
  GI50: 1.8 µM
  TGI: 3.62 µM
[51]
  GI50: 3.26 µM
  TGI: 13.1 µM
[52]
  GI50: 1.8 µM
  TGI: 3.47 µM
[53]
  GI50: 2.92 µM
  TGI: 28.7 µM
[54]
  GI50: 1.15 µM
  TGI: 6.04 µM
[55]
  GI50: 3 µM
  TGI: 11.1 µM
